# Reference: PubChem BioAssay (NCI)
#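 How tested: cells in 96-well plates exposed to compound for 48 hours at five concentrations. TGI: concentration producing complete growth inhibition.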
# Legend:
# Assay in all cases: NCI-60 cell line screen, 48 h
# SNB-19 CNS = test system: SNB-19 CNS
# MDA-MB-231 breast = test system: MDA-MB-231 breast
# SK-MEL-5 melanoma = test system: SK-MEL-5 melanoma
# 786-0 renal = test system: 786-0 renal
# HCT-116 colon = test system: HCT-116 colon
# OVCAR-3 ovarian = test system: OVCAR-3 ovarian
# KM12 colon = test system: KM12 colon
# CCRF-CEM leukemia = test system: CCRF-CEM leukemia
# PC-3 prostate = test system: PC-3 prostate
# U251 CNS = test system: U251 CNS
Compound,TGI (SNB-19 CNS) [µM],TGI (MDA-MB-231 breast) [µM],TGI (SK-MEL-5 melanoma) [µM],TGI (786-0 renal) [µM],TGI (HCT-116 colon) [µM],TGI (OVCAR-3 ovarian) [µM],TGI (KM12 colon) [µM],TGI (CCRF-CEM leukemia) [µM],TGI (PC-3 prostate) [µM],TGI (U251 CNS) [µM]
CN(NC(=O)c1ccco1)C1=NCCCCN1,> 100,> 100,> 100,> 100,> 100,> 100,> 100,> 100,> 100,> 100
O=c1c2cc([N+](=O)[O-])ccc2n2n1Cc1ccccc1CC2,> 100,> 100,> 100,> 100,> 100,> 100,> 100,> 100,> 100,> 100
CCOC(=O)C(NCc1ccccc1)(NC(=O)c1ccccc1)C(F)(F)F (stereo not drawn),> 100,83.6,> 100,> 100,> 100,> 100,> 100,89.9,> 100,> 100
CCC1(O)C=CC(=O)C=C1,39.2,36.6,> 100,39.2,> 100,69.6,33.5,> 100,> 62.2,34.9
[N-]=N[N+]#I1OC(C(F)(F)F)(C(F)(F)F)c2ccccc21,> 100,29,4.36,31.6,38.2,27.8,29,47.2,30.1,33.8
Nc1c(Br)cc(-c2cc(Br)c(N)c(Br)c2)cc1Br,> 100,> 100,> 100,> 100,> 100,> 100,> 100,> 100,> 100,–
CN(C)CC1CCC/C(=C\c2ccc(N(C)C)cc2)C1=O (stereo not drawn),31.9,15.7,31.4,10.8,10.1,9.36,2.93,> 100,32.2,30.7
O=c1cnn(C2OC(CO)C(O)C(F)C2O)c(=O)[nH]1 (stereo not drawn),> 100,> 100,> 100,> 100,> 100,> 100,> 100,> 100,> 100,> 100
CCCCCCCCCCCCNC(=O)NCC(OCC)OCC,> 10,> 10,> 10,> 10,> 10,–,> 10,> 10,> 10,> 10
O=[N+]([O-])/C(C(Cl)=C(Cl)Cl)=C1\Nc2ccccc2O1,> 100,> 100,> 100,32.1,> 100,63.6,> 100,38.7,> 100,> 100
COc1ccc2c(c1O)-c1c(OC)c(OC)cc3c1[C@H](C2)[N+](C)(C)CC3,> 100,> 100,> 100,> 100,> 100,> 100,> 100,> 100,> 100,> 100
